One may read the IC50 as the point on the concentration scale where inhibition reaches its midpoint.

Assay [1] concerns the target T1, Akt2 (Homo sapiens, UniProt P31751).
T1 construct: unspecified tag, removed (detagged) (cleaved yes); purchased SignalChem and Proteros (Akt2); Merck Millipore (PDK1) 14-452 (PDK1); none given for Akt2
Kind of assay: Akt activation assay (PDK1-mediated activation, LANCE Ultra crosstide TR-FRET), Akt2. The format is biochemical. As to conditions: read-out: Biological Assay 1 IC50 (nM) Akt2. In a few lines:
(§1)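 TR-FRET read-out (665/615 nm ratio) after Eu-anti-phospho-crosstide antibody, 1 h. Reaction: compound preincubated with Akt isoform, then 5 nM PDK1, lipid vesicles with 0.55 μM PtdIns(3,4,5)P3, 100 μM ATP, 100 nM crosstide, 30 min, EDTA stop. IC50 from 4-parameter equation.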

The target of assay [2] is T2, p-Akt1 in LNCaP cells (Homo sapiens, UniProt P31749).
T2 construct: SureFire assays to detect cellular p-Akt1, p-Akt2 and p-Akt3 levels in WM115 cells (Akt2/3) and LNCaP cells (Akt1); endogenous in cells; host or cells: LNCaP (ECACC 89110211)
The experiment in a line: Phospho-Akt cellular SureFire assay, p-Akt1 in LNCaP cells. The format is cell-based. The conditions noted are these: read-out: Biological Assay 2 IC50 (nM) Akt1 LNCaP. In a few lines:
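Phospho-Thr308 Akt1 detected by AlphaScreen SureFire proximity beads in LNCaP lysates after 15 min compound treatment at 37 °C in 0.1% FBS medium, unstimulated, 0.3% DMSO. Cells plated at 5×10^4/well overnight; IC50 from a 4-parameter equation.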

Assay [3] concerns the target T3, p-Akt2 in WM115 cells (Homo sapiens, UniProt P31751).
T3 construct: SureFire assays to detect cellular p-Akt1, p-Akt2 and p-Akt3 levels in WM115 cells (Akt2/3) and LNCaP cells (Akt1); endogenous in cells; host or cells: WM115 (ECACC 91061232), insulin-stimulated
The experiment in a line: Phospho-Akt cellular SureFire assay, p-Akt2 in WM115 cells. The format is cell-based. The conditions noted are these: insulin stimulated, read-out: Biological Assay 2 IC50 (nM) Akt2 WM115. In a few lines: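 Readout is a bead-proximity SureFire assay pairing a pThr308 Akt antibody with a total Akt2 antibody, lysate and beads incubated 2 h plus 2 h at room temperature in the dark. Before lysis, serum-starved WM115 cells received 100 nM insulin (10 min), then test compound (15 min, 0.3% DMSO); IC50 by 4-parameter equation.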

Assay [4] has as its target T4, p-Akt3 in WM115 cells (Homo sapiens, UniProt Q9Y243).
T4 construct: SureFire assays to detect cellular p-Akt1, p-Akt2 and p-Akt3 levels in WM115 cells (Akt2/3) and LNCaP cells (Akt1); endogenous in cells; host or cells: WM115 (ECACC 91061232), insulin-stimulated
Kind of assay: Phospho-Akt cellular SureFire assay, p-Akt3 in WM115 cells. The conditions noted are these: insulin stimulated, read-out: Biological Assay 2 IC50 (nM) Akt3 WM115. The format is cell-based. An outline of the steps:
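pThr308-Akt3 in lysates was quantified by bead-proximity SureFire detection, pairing a phospho-specific antibody with a total Akt3 antibody. Before lysis, WM115 cells in 0.1% FBS medium were treated for 15 min at 37 °C with compound (final DMSO 0.3%), following a 10 min stimulation with 100 nM insulin. IC50 was obtained by 4-parameter fitting.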

The target in assay [5] is T5, Akt3 (Homo sapiens, UniProt Q9Y243).
T5 construct: unspecified tag, removed (detagged) (cleaved yes); purchased SignalChem and Proteros (Akt3); Merck Millipore (PDK1) 14-452 (PDK1); none given for Akt3
The experiment in a line: Akt activation assay (PDK1-mediated activation, LANCE Ultra crosstide TR-FRET), Akt3. In kind it is biochemical. The conditions noted are these: read-out: Biological Assay 1 IC50 (nM) Akt3. In a few lines: as §1
In general terms: Time-resolved FRET reads energy transfer from a long-lived donor to a nearby acceptor.

Assay [6] has as its target T6, Akt1 (Homo sapiens, UniProt P31749).
T6 construct: unspecified tag, removed (detagged) (cleaved yes); purchased SignalChem and Proteros (Akt1); Merck Millipore (PDK1) 14-452 (PDK1); none given for Akt1
Kind of assay: Akt activation assay (PDK1-mediated activation, LANCE Ultra crosstide TR-FRET), Akt1. The format is biochemical. The conditions noted are these: read-out: Biological Assay 1 IC50 (nM) Akt1. In a few lines:
as §1

Bounds are passed on as bounds.

T3 sequence (P31751 whole entry): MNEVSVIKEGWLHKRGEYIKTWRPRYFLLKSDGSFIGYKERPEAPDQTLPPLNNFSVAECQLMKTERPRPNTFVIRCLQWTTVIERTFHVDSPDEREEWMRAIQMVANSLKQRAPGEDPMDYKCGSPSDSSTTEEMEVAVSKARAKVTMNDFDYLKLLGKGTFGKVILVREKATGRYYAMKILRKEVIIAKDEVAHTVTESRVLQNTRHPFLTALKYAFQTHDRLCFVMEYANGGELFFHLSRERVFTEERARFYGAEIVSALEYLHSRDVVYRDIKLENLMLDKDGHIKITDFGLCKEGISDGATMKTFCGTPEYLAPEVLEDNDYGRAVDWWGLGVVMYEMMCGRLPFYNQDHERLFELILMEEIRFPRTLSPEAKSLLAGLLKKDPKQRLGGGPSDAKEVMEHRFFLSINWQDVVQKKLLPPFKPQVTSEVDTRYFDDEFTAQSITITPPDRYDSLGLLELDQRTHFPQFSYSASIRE
T1 sequence (P31751 whole entry): as above
T5 sequence (Q9Y243 whole entry): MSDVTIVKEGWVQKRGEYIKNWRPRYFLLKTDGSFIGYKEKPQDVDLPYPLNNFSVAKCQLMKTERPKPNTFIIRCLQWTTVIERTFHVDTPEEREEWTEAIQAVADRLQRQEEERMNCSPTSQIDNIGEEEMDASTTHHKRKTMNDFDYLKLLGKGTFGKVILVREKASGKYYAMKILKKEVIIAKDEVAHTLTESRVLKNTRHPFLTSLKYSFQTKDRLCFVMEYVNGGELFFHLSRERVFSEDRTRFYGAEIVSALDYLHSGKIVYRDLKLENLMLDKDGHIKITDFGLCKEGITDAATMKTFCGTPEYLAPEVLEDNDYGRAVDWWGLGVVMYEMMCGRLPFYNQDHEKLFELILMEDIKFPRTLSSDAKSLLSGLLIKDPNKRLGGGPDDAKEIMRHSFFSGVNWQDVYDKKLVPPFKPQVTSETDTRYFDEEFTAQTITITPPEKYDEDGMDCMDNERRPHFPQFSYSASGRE
T4 sequence (Q9Y243 whole entry): as above
T6 sequence (P31749 whole entry): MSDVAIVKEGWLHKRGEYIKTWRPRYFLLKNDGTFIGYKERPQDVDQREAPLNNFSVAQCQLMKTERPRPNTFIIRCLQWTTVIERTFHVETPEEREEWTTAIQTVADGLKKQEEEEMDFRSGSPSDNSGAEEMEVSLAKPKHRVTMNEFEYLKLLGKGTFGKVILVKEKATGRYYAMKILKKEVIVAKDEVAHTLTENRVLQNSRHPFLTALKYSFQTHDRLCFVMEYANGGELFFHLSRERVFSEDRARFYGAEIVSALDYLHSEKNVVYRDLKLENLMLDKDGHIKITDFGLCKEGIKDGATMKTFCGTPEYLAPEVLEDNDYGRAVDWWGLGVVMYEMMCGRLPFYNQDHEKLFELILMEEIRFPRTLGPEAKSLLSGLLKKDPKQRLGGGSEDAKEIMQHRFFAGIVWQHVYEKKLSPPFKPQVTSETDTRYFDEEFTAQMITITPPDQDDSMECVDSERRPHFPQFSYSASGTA
T2 sequence (P31749 whole entry): as above

Regarding `NC1(c2ccc(-c3cnc(NC(=O)C[C@H]4CC[C@H](N5CCCC5=O)CC4)cc3-c3ccccc3)cc2)CC1` [Example A83, N-(5-(4-(1-aminocyclopropyl)phenyl)-4-phenylpyridin-2-yl)-2-(trans-4-(2-oxopyrrolidin-1-yl)cyclohexyl)acetamide], the IC50 in assay [1] is 500 nM; in assay [2], more than 20000 nM; in assay [3], 3400 nM; in assay [4] it was 220 nM; in assay [5], 33 nM; in assay [6], more than 30000 nM.

Consider `CCC(=O)N(C)[C@H]1CC[C@H](CC(=O)Nc2cc(-c3ccccc3)c(-c3ccc(C(C)(C)N)cc3)nn2)CC1` [Example A84, N-(trans-4-(2-((6-(4-(2-aminopropan-2-yl)phenyl)-5-phenylpyridazin-3-yl)amino)-2-oxoethyl)cyclohexyl)-N-methylpropionamide], for which the IC50 in assay [1] is 4000 nM; in assay [2], more than 30000 nM; in assay [3] it was 7100 nM; in assay [4] it was 150 nM; in assay [5] it was 51 nM; in assay [6] it was more than 30000 nM.

Regarding `CC(C)C(=O)N(C)[C@H]1CC[C@H](CC(=O)Nc2cc(-c3ccccc3)c(-c3ccc(C(C)(C)N)cc3)nn2)CC1` [Example A85, N-(trans-4-(2-((6-(4-(2-aminopropan-2-yl)phenyl)-5-phenylpyridazin-3-yl)amino)-2-oxoethyl)cyclohexyl)-N-methylisobutyramide], the IC50 in assay [1] is 3400 nM; in assay [2], more than 20000 nM; in assay [3] it was 8800 nM; in assay [4], 270 nM; in assay [5] it was 74 nM; in assay [6], more than 30000 nM.

As to `CN(C(=O)C1CC1)[C@H]1CC[C@H](CC(=O)Nc2cc(-c3ccccc3)c(-c3ccc(C(C)(C)N)cc3)nn2)CC1` [Example A86, N-(trans-4-(2-((6-(4-(2-aminopropan-2-yl)phenyl)-5-phenylpyridazin-3-yl)amino)-2-oxoethyl)cyclohexyl)-N-methylcyclopropanecarboxamide], the IC50 in assay [1] is 3900 nM; in assay [2] it was more than 21000 nM; in assay [3], 8300 nM; in assay [4] it was 170 nM; in assay [5] it was 45 nM; in assay [6], more than 30000 nM.

In the case of `CN(C(=O)C1CCC1)[C@H]1CC[C@H](CC(=O)Nc2cc(-c3ccccc3)c(-c3ccc(C(C)(C)N)cc3)nn2)CC1` [Example A87, N-(trans-4-(2-((6-(4-(2-aminopropan-2-yl)phenyl)-5-phenylpyridazin-3-yl)amino)-2-oxoethyl)cyclohexyl)-N-methylcyclobutanecarboxamide], the IC50 in assay [1] was 5500 nM; in assay [2] it was more than 23000 nM; in assay [3], 12000 nM; in assay [4], 400 nM; in assay [5], 99 nM; in assay [6] it was more than 30000 nM.

Regarding `COC(=O)N(C)[C@H]1CC[C@H](CC(=O)Nc2cc(-c3ccccn3)c(-c3ccc(C4(N)CC4)cc3)cn2)CC1` [Example A88, Methyl ((1r,4r)-4-(2-((5′-(4-(1-aminocyclopropyl)phenyl)-[2,4′-bipyridin]-2′-yl)amino)-2-oxoethyl)cyclohexyl)(methyl)carbamate], the IC50 is more than 27000 nM in assay [1]; more than 30000 nM in assay [2]; more than 30000 nM in assay [3]; 1600 nM in assay [4]; 1400 nM in assay [5]; more than 30000 nM in assay [6].

For the molecule `CCC(=O)N(C)[C@H]1CC[C@H](CC(=O)Nc2cnc(-c3ccc(C4(N)CC4)c(F)c3)c(-c3ccccc3)c2)CC1` [Example A89, N-(trans-4-(2-((6-(4-(1-aminocyclopropyl)-3-fluorophenyl)-5-phenylpyridin-3-yl)amino)-2-oxoethyl)cyclohexyl)-N-methylpropionamide], the IC50 in assay [1] was 4000 nM; in assay [2], more than 30000 nM; in assay [3], 8300 nM; in assay [4], 130 nM; in assay [5], 80 nM; in assay [6], more than 30000 nM.

As to `CCC(=O)N(C)[C@H]1CC[C@H](CC(=O)Nc2cc(-c3ccccc3)c(-c3ccc(C4(N)CC4)cc3)nn2)CC1` [Example A91, N-(trans-4-(2-((6-(4-(1-aminocyclopropyl)phenyl)-5-phenylpyridazin-3-yl)amino)-2-oxoethyl)cyclohexyl)-N-methylpropionamide], the IC50 was 490 nM in assay [1]; more than 30000 nM in assay [2]; 2000 nM in assay [3]; 90 nM in assay [4]; 24 nM in assay [5]; more than 30000 nM in assay [6].

Take `CC(C)C(=O)N(C)[C@H]1CC[C@H](CC(=O)Nc2cc(-c3ccccc3)c(-c3ccc(C4(N)CC4)cc3)nn2)CC1` [Example A92, N-(trans-4-(2-((6-(4-(1-aminocyclopropyl)phenyl)-5-phenylpyridazin-3-yl)amino)-2-oxoethyl)cyclohexyl)-N-methylisobutyramide]: the IC50 in assay [1] was 1200 nM; in assay [2] it was more than 30000 nM; in assay [3] it was 2200 nM; in assay [4] it was 140 nM; in assay [5], 29 nM; in assay [6], more than 13000 nM.

As for `CN(C(=O)C1CCC1)[C@H]1CC[C@H](CC(=O)Nc2cc(-c3ccccc3)c(-c3ccc(C4(N)CC4)cc3)nn2)CC1` [Example A93, N-(trans-4-(2-((6-(4-(1-aminocyclopropyl)phenyl)-5-phenylpyridazin-3-yl)amino)-2-oxoethyl)cyclohexyl)-N-methylcyclobutanecarboxamide], the IC50 in assay [1] is 1400 nM; in assay [2], more than 30000 nM; in assay [3] it was 2600 nM; in assay [4], 200 nM; in assay [5], 37 nM; in assay [6] it was more than 19000 nM.

With `CCOC(=O)N(C)[C@H]1CC[C@H](CC(=O)Nc2cc(-c3ccccc3)c(-c3ccc(C4(N)CC4)cc3)nn2)CC1` [Example A94, Ethyl (trans-4-(2-((6-(4-(1-aminocyclopropyl)phenyl)-5-phenylpyridazin-3-yl)amino)-2-oxoethyl)cyclohexyl)(methyl)carbamate], the IC50 in assay [1] was 2200 nM; in assay [2], more than 30000 nM; in assay [3], 6000 nM; in assay [4] it was 370 nM; in assay [5], 57 nM; in assay [6] it was more than 23000 nM.

Regarding `CCC(=O)N(C)[C@H]1CC[C@H](CC(=O)Nc2cnc(-c3ccc(C(C)(C)N)cc3)c(-c3ccccc3)c2)CC1` [Example A95, N-(trans-4-(2-((6-(4-(2-aminopropan-2-yl)phenyl)-5-phenylpyridin-3-yl)amino)-2-oxoethyl)cyclohexyl)-N-methylpropionamide], the IC50 was 3300 nM in assay [1]; more than 30000 nM in assay [2]; 3100 nM in assay [3]; 110 nM in assay [4]; 54 nM in assay [5]; more than 30000 nM in assay [6].

For the molecule `CC(=O)N(C)[C@H]1CC[C@H](CC(=O)Nc2cc(-c3ccsc3)c(-c3ccc(C(C)(C)N)cc3)nn2)CC1` [Example A96, N-(6-(4-(2-aminopropan-2-yl)phenyl)-5-(thiophen-3-yl)pyridazin-3-yl)-2-(trans-4-(N-methylacetamido)cyclohexyl)acetamide], the IC50 was 10000 nM in assay [1]; more than 30000 nM in assay [2]; 15000 nM in assay [3]; 180 nM in assay [4]; 92 nM in assay [5]; more than 30000 nM in assay [6].

As to `C[C@]1(O)C[C@@](N)(c2ccc(-c3nnc(NC(=O)C[C@H]4CC[C@H](N5CCCCC5=O)CC4)cc3-c3ccccc3)cc2)C1` [Example A98, N-(6-(4-(trans-1-amino-3-hydroxy-3-methylcyclobutyl)phenyl)-5-phenylpyridazin-3-yl)-2-(trans-4-(2-oxopiperidin-1-yl)cyclohexyl)acetamide], the IC50 in assay [1] is 53 nM; in assay [2], 1900 nM; in assay [3] it was 320 nM; in assay [4] it was 5 nM; in assay [5] it was 4 nM; in assay [6] it was 2600 nM.

For the origin of these results see patent US10336702B2, “Pharmaceutically active compounds” (BERGENBIO ASA, priority 2015, dated 2019).
